Laboratory results from US20230082430A1 (C4 Therapeutics, Inc., priority 2019, published 2023).

tested on: NCIH929.1 cells; test: Cell viability assay for Table 2 (CellTiter-Glo 2.0, ATP quantification, 96 hr); format: cell-based; details: 96 h
Description: Cell Viability Assay for Table 2
CellTiter-Glo® 2.0 Assay was purchased from Promega (Madison, Wis., USA). NCIH929.1 cell line was purchased from ATCC (Manassas, Va., USA). Cell culture flasks and 384-well microplates were acquired from VWR (Radnor, Pa., USA).

Question: O=C1CCC(N2C(=O)c3cccc4c(Cc5cn(C6CCN(CC7(C(F)(F)F)CC7)CC6)nc5Cl)ccc2c34)C(=O)N1 (stereo not shown) [Compound 201, 3-[6-[[3-chloro-1-[1-[[1-(trifluoromethyl)cyclopropyl]methyl]-4-piperidyl]pyrazol-4-yl]methyl]-2-oxo-benzo[cd]indol-1-yl]piperidine-2,6-dione] was tested. Which IC50 did it give?
Answer: < 1 nM

Question: N#Cc1ccc(N2CCN(Cc3ccc(Cc4ccc5c6c(cccc46)C(=O)N5C4CCC(=O)NC4=O)cc3F)CC2)c(F)c1 (stereo not shown) [Compound 214, 4-[4-[[4-[[1-(2,6-dioxo-3-piperidyl)-2-oxo-benzo[cd]indol-6-yl]methyl]-2-fluoro-phenyl]methyl]piperazin-1-yl]-3-fluoro-benzonitrile] was tested. Which IC50 did it give?
Answer: < 1 nM

Question: How did the IC50 turn out when O=C1CCC(N2C(=O)c3cccc4cccc2c34)C(=O)N1 (stereo not shown) [Compound 139, 3-(2-oxobenzo[cd]indol-1(2H)-yl)piperidine-2,6-dione] was run?
Answer: < 100 nM

same assay, conditions: 96 h, NCIH929.1 cell viability, 96 hr, top concentration 1 μM, 14 points half log titration; read-out: IC50

Question: How did the IC50 turn out when CC1(CN2CCC(n3cc(Cc4ccc5c6c(cccc46)C(=O)N5C4CCC(=O)NC4=O)cn3)CC2)CCC1 (stereo not shown) [Compound 55, 3-(6-((1-(1-((1-methylcyclobutyl)methyl)piperidin-4-yl)-1H-pyrazol-4-yl)methyl)-2-oxobenzo[cd]indol-1(2H)-yl)piperidine-2,6-dione] was run?
Answer: < 1 nM

Question: CN1C(=O)CCC(N2C(=O)c3cccc4c(Cc5cnn(C6CCN(CC7(C)CCC7)CC6)c5)ccc2c34)C1=O (stereo not shown) [Compound 294, 1-methyl-3-(6-((1-(1-((1-methylcyclobutyl)methyl)piperidin-4-yl)-1H-pyrazol-4-yl)methyl)-2-oxobenzo[cd]indol-1(2H)-yl)piperidine-2,6-dione] was tested. Which IC50 did it give?
Answer: < 100 nM

Question: How did the IC50 turn out when O=C1CCC(N2C(=O)c3cccc4c(Cc5ccc(CN6CCC7(CCCO7)CC6)cc5)ccc2c34)C(=O)N1 (single isomer, unassigned) [Compound 217, 3-[6-[[4-(1-oxa-8-azaspiro[4.5]decan-8-ylmethyl)phenyl]methyl]-2-oxo-benzo[cd]indol-1-yl]piperidine-2,6-dione] was run?
Answer: < 1 nM

Question: Which IC50 does the source give for CC(C)(C)OC(=O)N1CC2CC(C(=O)N3CCC(n4cc(Cc5ccc6c7c(cccc57)C(=O)N6C5CCC(=O)NC5=O)cn4)CC3)(C2)C1 (stereo not shown) [Compound 292, tert-butyl 1-(4-(4-((1-(2,6-dioxopiperidin-3-yl)-2-oxo-1,2-dihydrobenzo[cd]indol-6-yl)methyl)-1H-pyrazol-1-yl)piperidine-1-carbonyl)-3-azabicyclo[3.1.1]heptane-3-carboxylate] here?
Answer: < 1 nM

Question: How did the IC50 turn out when O=C1CCC(N2C(=O)c3cccc4c(Cc5cnn(C6CCN(C(=O)c7ccccc7)CC6)c5)ccc2c34)C(=O)N1 (stereo not shown) [Compound 47, 3-(6-((1-(1-benzoylpiperidin-4-yl)-1H-pyrazol-4-yl)methyl)-2-oxobenzo[cd]indol-1(2H)-yl)piperidine-2,6-dione] was run?
Answer: < 1 nM

Question: CC1(n2cc(Cc3ccc4c5c(cccc35)C(=O)N4C3CCC(=O)NC3=O)cn2)CCN(CC2(F)CC2)CC1 (stereo not shown) [Compound 106, 3-(6-((1-(1-((1-fluorocyclopropyl)methyl)-4-methylpiperidin-4-yl)-1H-pyrazol-4-yl)methyl)-2-oxobenzo[cd]indol-1(2H)-yl)piperidine-2,6-dione] was tested. Which IC50 did it give?
Answer: < 1 nM

Question: How did the IC50 turn out when CC1(CN2CCC(n3nc(Cl)cc3Cc3ccc4c5c(cccc35)C(=O)N4C3CCC(=O)NC3=O)CC2)CCC1 (stereo not shown) [Compound 206, 3-[6-[[5-chloro-2-[1-[(1-methylcyclobutyl)methyl]-4-piperidyl]pyrazol-3-yl]methyl]-2-oxo-benzo[cd]indol-1-yl]piperidine-2,6-dione] was run?
Answer: < 1 nM

Question: With CC(C)(C)CN1CCC(C)(n2cc(Cc3ccc4c5c(cccc35)C(=O)N4C3CCC(=O)NC3=O)cn2)CC1 (stereo not shown) [Compound 104, 3-(6-((1-(4-methyl-1-neopentylpiperidin-4-yl)-1H-pyrazol-4-yl)methyl)-2-oxobenzo[cd]indol-1(2H)-yl)piperidine-2,6-dione] as the compound, how does the IC50 read?
Answer: < 1 nM

Question: With CC1(CN2CCC(n3cc(Cc4ccc5c6c(cccc46)C(=O)N5C4CCC(=O)NC4=O)c(Cl)n3)CC2)CCC1 (stereo not shown) [Compound 200, 3-[6-[[3-chloro-1-[1-[(1-methylcyclobutyl)methyl]-4-piperidyl]pyrazol-4-yl]methyl]-2-oxo-benzo[cd]indol-1-yl]piperidine-2,6-dione] as the compound, how does the IC50 read?
Answer: < 1 nM

Question: CC1(n2cc(Cc3ccc4c5c(cccc35)C(=O)N4C3CCC(=O)NC3=O)cn2)CCN(C(=O)C23CC(C2)C3)CC1 (stereo not shown) [Compound 91, 3-(6-((1-(1-(bicyclo[1.1.1]pentane-1-carbonyl)-4-methylpiperidin-4-yl)-1H-pyrazol-4-yl)methyl)-2-oxobenzo[cd]indol-1(2H)-yl)piperidinc-2,6-dione] was tested. Which IC50 did it give?
Answer: < 1 nM

Question: With N#Cc1ccc(N2CCN(Cc3cnn(Cc4ccc5c6c(cccc46)C(=O)N5C4CCC(=O)NC4=O)c3)CC2)c(F)c1 (stereo not shown) [Compound 128, 4-[4-[[1-[[1-(2,6-dioxo-3-piperidyl)-2-oxo-benzo[cd]indol-6-yl]methyl]pyrazol-4-yl]methyl]piperazin-1-yl]-3-fluoro-benzonitrile] as the compound, how does the IC50 read?
Answer: < 1 nM

Question: How did the IC50 turn out when CC(C)(C)OC(=O)N1CCC(n2cc(Cc3ccc4c5c(cccc35)C(=O)N4C3CCC(=O)NC3=O)cn2)CC1 (single isomer, unassigned) [Compound 141, tert-butyl 4-[4-[[1-[2,6-dioxo-3-piperidyl]-2-oxo-benzo[cd]indol-6-yl]methyl]pyrazol-1-yl]piperidine-1-carboxylate] was run?
Answer: < 1 nM

Question: Which IC50 does the source give for CC(C)(C)OC(=O)N1CCC(n2cc(Cc3ccc4c5c(cccc35)C(=O)N4C3CCC(=O)NC3=O)cn2)CC1 (racemic) [Compound 140, tert-butyl 4-(4-((1-(2,6-dioxopiperidin-3-yl)-2-oxo-1,2-dihydrobenzo[cd]indol-6-yl)methyl)-1H-pyrazol-1-yl)piperidine-1-carboxylate] here?
Answer: < 1 nM

Question: With CC1(CN2CCC(n3cc(Cc4ccc5c6c(cccc46)C(=O)N5C4CCC(=O)NC4=O)cn3)C(F)(F)C2)CCC1 (single isomer, unassigned) [Compound 186, 3-[6-[[1-[3,3-difluoro-1-[(1-methylcyclobutyl)methyl]-4-piperidyl]pyrazol-4-yl]methyl]-2-oxo-benzo[cd]indol-1-yl]piperidine-2,6-dione] as the compound, how does the IC50 read?
Answer: < 1 nM

Question: CC1(C(=O)N2CCN(C3(c4ccc(Cc5ccc6c7c(cccc57)C(=O)N6C5CCC(=O)NC5=O)cc4)CC3)CC2)CCC1 (stereo not shown) [Compound 263, 3-[6-(4-{1-[4-(1-Methyl-cyclobutanecarbonyl)-piperazin-1-yl]-cyclopropyl}-benzyl)-2-oxo-2H-benzo[cd]indol-1-yl]-piperidine-2,6-dione] was tested. Which IC50 did it give?
Answer: < 1 nM

Question: For CC(C)(C)OC1CCC(n2cc(Cc3ccc4c5c(cccc35)C(=O)N4C3CCC(=O)NC3=O)cn2)CC1 (stereo not shown) [Compound 212, 3-[6-[[1-(4-tert-butoxycyclohexyl)pyrazol-4-yl]methyl]-2-oxo-benzo[cd]indol-1-yl]piperidine-2,6-dione], which IC50 is on record?
Answer: < 1 nM

Question: For O=C1CCC(N2C(=O)c3cccc4c(Cc5ccc(CN6CCN(S(=O)(=O)c7ccc(F)cc7)CC6)cc5)ccc2c34)C(=O)N1 (stereo not shown) [Compound 202, 3-[6-[[4-[[4-(4-fluorophenyl)sulfonylpiperazin-1-yl]methyl]phenyl]methyl]-2-oxo-benzoindol-1-yl]piperidine-2,6-dione], which IC50 is on record?
Answer: < 1 nM

Question: For O=C1CCC(N2C(=O)c3cccc4c(Cc5ccc(CN6CCN(CC7CC7)CC6)cc5)ccc2c34)C(=O)N1 (stereo not shown) [Compound 113, 3-(6-(4-((4-(cyclopropylmethyl)piperazin-1-yl)methyl)benzyl)-2-oxobenzo[cd]indol-1(2H)-yl)piperidine-2,6-dione], which IC50 is on record?
Answer: < 1 nM

Question: How did the IC50 turn out when N#Cc1ccc(N2CCN(Cc3ccc(Cc4ccc5c6c(cccc46)C(=O)N5C4CCC(=O)NC4=O)cc3)CC2)c(F)c1 (racemic) [Compound 183, 4-[4-[[4-[[1-(2,6-dioxo-3-piperidyl)-2-oxo-benzo[cd]indol-6-yl]methyl]phenyl]methyl]piperazin-1-yl]-3-fluoro-benzonitrile] was run?
Answer: < 1 nM

Question: How did the IC50 turn out when O=C1CCC(N2C(=O)c3cccc4c(Cc5cnn(C6CCN(C(=O)c7ccccn7)CC6)c5)ccc2c34)C(=O)N1 (stereo not shown) [Compound 46, 3-(2-oxo-6-((1-(1-picolinoylpiperidin-4-yl)-1H-pyrazol-4-yl)methyl)benzo[cd]indol-1(2H)-yl)piperidine-2,6-dione] was run?
Answer: < 1 nM

Question: For CC(C)(C#N)C(=O)N1CCC(n2cc(Cc3ccc4c5c(cccc35)C(=O)N4C3CCC(=O)NC3=O)cn2)CC1 (stereo not shown) [Compound 40, 3-(4-(4-((1-(2,6-dioxopiperidin-3-yl)-2-oxo-1,2-dihydrobenzo[cd]indol-6-yl)methyl)-1H-pyrazol-1-yl)piperidin-1-yl)-2,2-dimethyl-3-oxopropanenitrile], which IC50 is on record?
Answer: < 1 nM

same assay, conditions: NCIH929.1 cell viability, 96 hr, top concentration 1 μM, 14 points half log titration; read-out: IC50

Question: CC(c1ccc(Cc2ccc3c4c(cccc24)C(=O)N3C2CCC(=O)NC2=O)cc1)N1CCN(c2ccccc2F)CC1 (single isomer, unassigned) [Compound 285, 3-[6-[[4-[1-[4-(2-fluorophenyl)piperazin-1-yl]ethyl]phenyl]methyl]-2-oxo-benzo[cd]indol-1-yl]piperidine-2,6-dione] was tested. Which IC50 did it give?
Answer: < 1 nM

Question: How did the IC50 turn out when CC1(n2cc(Cc3ccc4c5c(cccc35)C(=O)N4C3CCC(=O)NC3=O)cn2)CCN(C(=O)C23COC(C2)C3)CC1 (single isomer, unassigned) [Compound 239, 3-[6-[[1-[4-methyl-1-(2-oxabicyclo[2.1.1]hexane-4-carbonyl)-4-piperidyl]pyrazol-4-yl]methyl]-2-oxo-benzo[cd]indol-1-yl]piperidine-2,6-dione] was run?
Answer: < 1 nM

Question: For O=C1CCC(N2C(=O)c3cccc4c(Cc5ccc(CN6C7COCC6C7)cc5)ccc2c34)C(=O)N1 (stereo not shown) [Compound 226, 3-(6-(4-((3-oxa-6-azabicyclo[3.1.1]heptan-6-yl)methyl)benzyl)-2-oxobenzo[cd]indol-1(2H)-yl)piperidine-2,6-dione], which IC50 is on record?
Answer: < 1 nM

Question: How did the IC50 turn out when CC1(CN2CCC(n3cc(Cc4ccc5c6c(cccc46)C(=O)N5C4CCC(=O)NC4=O)cn3)C(F)(F)C2)CCC1 (single isomer, unassigned) [Compound 187, 3-[6-[[1-[3,3-difluoro-1-[(1-methylcyclobutyl)methyl]-4-piperidyl]pyrazol-4-yl]methyl]-2-oxo-benzo[cd]indol-1-yl]piperidine-2,6-dione] was run?
Answer: < 1 nM
